Test results as given in patent US20180127800A1 (priority 2016, published 2018).

Target: HIV-1 protease (Human immunodeficiency virus type 1 group M subtype B, UniProt P04585)
Format: cell-based
Details: Gal4/PR cell line induced by Dox, incubated with protease inhibitor
Text: This type of cleavage was successfully monitored by a previously developed assay for HIV-1. The assay was developed in mammalian cells and relied on an engineered Gal4/protease fusion protein that travels to the nucleus and activates the GFP reporter gene when inhibited. The activation or lack thereof of the reporter GFP gene can be measured and quantified via flow cytometry.
In the absence of Dox, rtTA cannot bind to the Tet-Responsive Element (TRE) and consequently, there is no GFP expression from the reporter construct. In the presence of Dox, rtTA binds to TRE and induces GFP expression. […] In the presence of Dox, PR/Gal4 is expressed; however, its autocatalytic activity results in the separation of the Gal4 domains, resulting in turn in the lack of GFP expression. However, in the presence of protease inhibitor (PI), the PR/Gal4 fusion remains intact, resulting in the induction of GFP expression.
The plasmids include the rtTA, GFP reporter and Gal4 fusions. The Gal4 plasmids include Gal4 control, Gal4/PRm (mutant) and Gal4/PR.
In order to be able to easily discriminate between cleaved and non-cleaved events (or active and non-active protease), the assay relied on the classical Gal4/UAS system broadly used in gene expression experiments. […]

Q: With `CC(C)(C)NC(=O)[C@@H]1CN(Cc2cccnc2)CCN1C[C@@H](O)C[C@@H](Cc1ccccc1)C(=O)N[C@H]1c2ccccc2C[C@H]1O` [Indinavir] as the compound, how does the “GFP expression of the PR cell line (flow cytometry)” value read?
A: not green when induced by Dox, unless it is also incubated with the PI IDV
